# Reference: publication PMC12627933, “A First-In-Human Study of the SUMOylation Inhibitor Subasumstat in Patients with Advanced/Metastatic Solid Tumors or Relapsed/Refractory Hematologic Malignancies” (Cancer Research Communications, 2025)
# “And” between values parts separate entries of the source, which are not always exact repeats. Equal values may be shown once.
# Experiment: Safety: treatment-emergent adverse events (NCI CTCAE v5.0; CRS per ASTCT), phase I/II study NCT03648372
# Assay type: in vivo
# Procedure: This study comprised two parts: a phase I dose escalation and a phase II dose expansion (Fig. 1). In the dose-escalation phase, patients were enrolled to receive subasumstat intravenously as a 1-hour (±10 minutes) infusion on days 1, 4, 8, and 11 of a 21-day cycle (biweekly schedule). […] Dose escalation was based on cohort with an adaptive design using Bayesian logistic regression modeling with overdose control. The starting dose of subasumstat was based on Good Laboratory Practice animal toxicity studies and supported by the estimation of a minimum anticipated biologically effective level. A detailed description of dose-limiting toxicities (DLT) is presented in the Supplementary Methods.
# The phase II dose-expansion portion enrolled patients to receive the recommended phase II dose (RP2D) determined in phase I, with each cohort assessed separately using an adaptive two-stage design for a single proportion (see Supplementary Methods). For stage 1, each cohort was analyzed when a prespecified number of patients were enrolled and had the potential to have at least one posttreatment scan [i.e., after the first disease assessment, 2 months from cycle 1 day 1 (C1D1)]. If the prespecified minimal response rate was not achieved in the first stage for a given cohort, that cohort would be closed to enrollment. […] The final analysis of the primary endpoints for each cohort would take place when all ongoing patients had the opportunity to complete the 6-month disease assessment. Across both phases, patients received subasumstat for up to 1 year or until confirmed disease progression, unacceptable toxicity, if any withdrawal criterion from the study was met, or if discontinuation of subasumstat occurred.
# The occurrence of DLTs was assessed during cycle 1 (DLTs are described in the Supplementary Methods). Treatment-emergent adverse events (TEAE) were graded according to NCI Common Terminology Criteria for Adverse Events version 5.0, except for cytokine release syndrome (CRS), which was graded according to the American Society for Transplantation and Cellular Therapy Consensus Grading for CRS ([20]).
# It was anticipated that approximately 70 DLT-evaluable patients would be enrolled for dose escalation. The safety analysis set included all patients who received at least one dose, even if incomplete, of subasumstat. […] The overall response rate (ORR) was defined as the proportion of patients who achieved complete response and partial response (PR) during the study. The disease control rate (DCR) was defined as the proportion of patients who achieved […] as per RECIST v1.1 for solid tumors or Lugano classification for lymphomas. […] Progression-free survival was summarized descriptively using the Kaplan–Meier method.
smiles,measurement,setting,value
Cc1sc(C(=O)c2cncnc2N[C@@H]2C[C@H](COS(N)(=O)=O)[C@@H](O)C2)cc1[C@@H]1NCCc2ccc(Cl)cc21 [subasumstat],Subasumstat-related TEAE: Nausea,Phase II (n = 25),4 (16.0) n (%)
same,Subasumstat-related TEAE: Pyrexia,Phase II (n = 25),9 (36.0) n (%)
same,Subasumstat-related TEAE: Vomiting,Phase II (n = 25),1 (4.0) n (%)
same,TEAE: Abdominal distension,Phase II (n = 25),1 (4.0) n (%)
same,TEAE: Abdominal pain,Phase II (n = 25),4 (16.0) n (%)
same,TEAE: Anemia,Phase II (n = 25),7 (28.0) n (%)
same,TEAE: Arthralgia,Phase II (n = 25),5 (20.0) n (%)
same,TEAE: Back pain,Phase II (n = 25),2 (8.0) n (%)
same,TEAE: CRS,Phase II (n = 25),3 (12.0) n (%)
same,TEAE: Chills,Phase II (n = 25),8 (32.0) n (%)
same,TEAE: Constipation,Phase II (n = 25),2 (8.0) n (%)
same,TEAE: Decreased appetite,Phase II (n = 25),5 (20.0) n (%)
same,TEAE: Dehydration,Phase II (n = 25),2 (8.0) n (%)
same,TEAE: Diarrhea,Phase II (n = 25),10 (40.0) n (%)
same,TEAE: Dyspnea,Phase II (n = 25),4 (16.0) n (%)
same,TEAE: Fatigue,Phase II (n = 25),9 (36.0) n (%)
same,TEAE: Headache,Phase II (n = 25),7 (28.0) n (%)
same,TEAE: Hypophosphatemia,Phase II (n = 25),0 n (%)
same,TEAE: Insomnia,Phase II (n = 25),2 (8.0) n (%)
same,TEAE: Nausea,Phase II (n = 25),4 (16.0) n (%)
same,TEAE: Peripheral edema,Phase II (n = 25),2 (8.0) n (%)
same,TEAE: Pleural effusion,Phase II (n = 25),3 (12.0) n (%)
same,TEAE: Pyrexia,Phase II (n = 25),11 (44.0) n (%)
same,TEAE: Stomatitis,Phase II (n = 25),3 (12.0) n (%)
same,TEAE: Vomiting,Phase II (n = 25),2 (8.0) n (%)
same,TEAEs,Phase II (n = 25),24 (96.0) n (%)
same,TEAEs leading to discontinuation,Phase II (n = 25),4 (16.0) n (%)
same,TEAEs leading to discontinuation related to subasumstat,Phase II (n = 25),1 (4.0) n (%)
same,TEAEs related to subasumstat,Phase II (n = 25),22 (88.0) n (%)
same,AESI (adverse event of special interest),Total (N = 109),12 (11.0) n (%)
same,AESI related to subasumstat,Total (N = 109),12 (11.0) n (%)
same,AESI: CRS,Total (N = 109),12 (11.0) n (%)
same,Grade ≥3 TEAE: Abdominal pain,Total (N = 109),6 (5.5) n (%)
same,Grade ≥3 TEAE: Acute kidney injury,Total (N = 109),4 (3.7) n (%)
same,Grade ≥3 TEAE: Anemia,Total (N = 109),14 (12.8) n (%)
same,Grade ≥3 TEAE: Aspartate aminotransferase increased,Total (N = 109),2 (1.8) n (%)
same,Grade ≥3 TEAE: Blood bilirubin increased,Total (N = 109),2 (1.8) n (%)
same,Grade ≥3 TEAE: Dyspnea,Total (N = 109),4 (3.7) n (%)
same,Grade ≥3 TEAE: Fatigue,Total (N = 109),5 (4.6) n (%)
same,Grade ≥3 TEAE: Hyperbilirubinemia,Total (N = 109),2 (1.8) n (%)
same,Grade ≥3 TEAE: Hypertension,Total (N = 109),2 (1.8) n (%)
same,Grade ≥3 TEAE: Hypokalemia,Total (N = 109),7 (6.4) n (%)
same,Grade ≥3 TEAE: Hypomagnesemia,Total (N = 109),2 (1.8) n (%)
same,Grade ≥3 TEAE: Hypophosphatemia,Total (N = 109),2 (1.8) n (%)
same,Grade ≥3 TEAE: Lymphocyte count decreased,Total (N = 109),5 (4.6) n (%)
same,Grade ≥3 TEAE: Lymphopenia,Total (N = 109),2 (1.8) n (%)
same,Grade ≥3 TEAE: Muscular weakness,Total (N = 109),2 (1.8) n (%)
same,Grade ≥3 TEAE: Nausea,Total (N = 109),2 (1.8) n (%)
same,Grade ≥3 TEAE: Neutropenia,Total (N = 109),4 (3.7) n (%)
same,Grade ≥3 TEAE: Platelet count increased,Total (N = 109),3 (2.8) n (%)
same,Grade ≥3 TEAE: Pleural effusion,Total (N = 109),2 (1.8) n (%)
same,Grade ≥3 TEAE: Pneumonia,Total (N = 109),2 (1.8) n (%)
same,Grade ≥3 TEAE: Pneumonitis,Total (N = 109),2 (1.8) n (%)
same,Grade ≥3 TEAE: Pyrexia,Total (N = 109),2 (1.8) n (%)
same,Grade ≥3 TEAE: Small intestinal obstruction,Total (N = 109),4 (3.7) n (%)
same,Grade ≥3 TEAE: Thrombocytopenia,Total (N = 109),2 (1.8) n (%)
same,Grade ≥3 TEAE: Vomiting,Total (N = 109),4 (3.7) n (%)
same,Grade ≥3 TEAEs,Total (N = 109),66 (60.6) n (%)
same,Grade ≥3 TEAEs related to subasumstat,Total (N = 109),29 (26.6) n (%)
same,On-study deaths,Total (N = 109),12 (11.0) n (%)
same,Patients with at least one grade ≥3 TEAE,Total (N = 109),66 (60.6) n (%)
same,Serious adverse events,Total (N = 109),48 (44.0) n (%)
same,Serious adverse events related to subasumstat,Total (N = 109),12 (11.0) n (%)
same,TEAE: Abdominal distension,Total (N = 109),12 (11.0) n (%)
same,TEAE: Abdominal pain,Total (N = 109),21 (19.3) n (%)
same,TEAE: Anemia,Total (N = 109),19 (17.4) n (%)
same,TEAE: Arthralgia,Total (N = 109),17 (15.6) n (%)
same,TEAE: Back pain,Total (N = 109),14 (12.8) n (%)
same,TEAE: CRS,Total (N = 109),12 (11.0) n (%)
same,TEAE: Chills,Total (N = 109),28 (25.7) n (%)
same,TEAE: Constipation,Total (N = 109),16 (14.7) n (%)
same,TEAE: Decreased appetite,Total (N = 109),31 (28.4) n (%)
same,TEAE: Dehydration,Total (N = 109),12 (11.0) n (%)
same,TEAE: Diarrhea,Total (N = 109),39 (35.8) n (%)
same,TEAE: Dyspnea,Total (N = 109),26 (23.9) n (%)
same,TEAE: Fatigue,Total (N = 109),51 (46.8) n (%)
same,TEAE: Headache,Total (N = 109),37 (33.9) n (%)
same,TEAE: Hypophosphatemia,Total (N = 109),11 (10.1) n (%)
same,TEAE: Insomnia,Total (N = 109),13 (11.9) n (%)
same,TEAE: Nausea,Total (N = 109),45 (41.3) n (%)
same,TEAE: Peripheral edema,Total (N = 109),17 (15.6) n (%)
same,TEAE: Pleural effusion,Total (N = 109),12 (11.0) n (%)
same,TEAE: Pyrexia,Total (N = 109),39 (35.8) n (%)
same,TEAE: Stomatitis,Total (N = 109),11 (10.1) n (%)
same,TEAE: Vomiting,Total (N = 109),29 (26.6) n (%)
same,TEAEs,Total (N = 109),105 (96.3) n (%)
same,TEAEs leading to discontinuation,Total (N = 109),12 (11.0) n (%)
same,TEAEs leading to discontinuation related to subasumstat,Total (N = 109),4 (3.7) n (%)
same,TEAEs related to subasumstat,Total (N = 109),87 (79.8) n (%)
same,Grade ≥3 subasumstat-related TEAE: Anemia,Total (n = 109),4 (3.7) n (%)
same,Grade ≥3 subasumstat-related TEAE: Aspartate aminotransferase increased,Total (n = 109),2 (1.8) n (%)
same,Grade ≥3 subasumstat-related TEAE: Hypokalemia,Total (n = 109),2 (1.8) n (%)
same,Grade ≥3 subasumstat-related TEAE: Lymphocyte count decreased,Total (n = 109),4 (3.7) n (%)
same,Grade ≥3 subasumstat-related TEAE: Muscular weakness,Total (n = 109),2 (1.8) n (%)
same,Grade ≥3 subasumstat-related TEAE: Neutropenia,Total (n = 109),4 (3.7) n (%)
same,Grade ≥3 subasumstat-related TEAE: Platelet count increased,Total (n = 109),3 (2.8) n (%)
same,Grade ≥3 subasumstat-related TEAE: Pneumonitis,Total (n = 109),2 (1.8) n (%)
same,Grade ≥3 subasumstat-related TEAE: Thrombocytopenia,Total (n = 109),2 (1.8) n (%)
same,Patients with at least one grade ≥3 subasumstat-related TEAE,Total (n = 109),29 (26.6) n (%)
same,Subasumstat-related TEAE: Anemia,Total (n = 109),8 (7.3) n (%)
same,Subasumstat-related TEAE: CRS,Total (n = 109),12 (11.0) n (%)
same,Subasumstat-related TEAE: Chills,Total (n = 109),23 (21.1) n (%)
same,Subasumstat-related TEAE: Decreased appetite,Total (n = 109),13 (11.9) n (%)
same,Subasumstat-related TEAE: Diarrhea,Total (n = 109),21 (19.3) n (%)
same,Subasumstat-related TEAE: Dyspnea,Total (n = 109),6 (5.5) n (%)
same,Subasumstat-related TEAE: Fatigue,Total (n = 109),34 (31.2) n (%)
same,Subasumstat-related TEAE: Headache,Total (n = 109),26 (23.9) n (%)
same,Subasumstat-related TEAE: Hypokalemia,Total (n = 109),7 (6.4) n (%)
same,Subasumstat-related TEAE: IRR,Total (n = 109),6 (5.5) n (%)
same,Subasumstat-related TEAE: Myalgia,Total (n = 109),8 (7.3) n (%)
same,Subasumstat-related TEAE: Nausea,Total (n = 109),33 (30.3) n (%)
same,Subasumstat-related TEAE: Pyrexia,Total (n = 109),32 (29.4) n (%)
same,Subasumstat-related TEAE: Vomiting,Total (n = 109),14 (12.8) n (%)
same,Severity of CRS,"all incidences, most nonserious",grade 1 or 2
same,Discontinuation of subasumstat due to TEAEs,all patients (N = 109),11%
same,Grade ≥3 TEAE abdominal pain,all patients (N = 109),5.5%
same,Grade ≥3 TEAE anemia,all patients (N = 109),12.8% and 13%
same,Grade ≥3 TEAE hypokalemia,all patients (N = 109),6.4%
same,Grade ≥3 TEAEs,all patients (N = 109),60.6%
same,On-study deaths,all patients (N = 109),11.0%
same,On-study deaths related to subasumstat,all patients (N = 109),none
same,Subasumstat-related TEAE fatigue,all patients (N = 109),31.2%
same,Subasumstat-related TEAE nausea,all patients (N = 109),30.3%
same,Subasumstat-related TEAE pyrexia,all patients (N = 109),29.4%
same,Subasumstat-related grade ≥3 TEAEs,all patients (N = 109),26.6%
same,Subasumstat-related grade ≥3 anemia,all patients (N = 109),3.7%
same,Subasumstat-related grade ≥3 decreased lymphocyte blood cell count,all patients (N = 109),3.7%
same,Subasumstat-related grade ≥3 decreased platelet count,all patients (N = 109),2.8%
same,Subasumstat-related grade ≥3 neutropenia,all patients (N = 109),3.7%
same,TEAE diarrhea,all patients (N = 109),36% and 35.8%
same,TEAE fatigue,all patients (N = 109),47% and 46.8%
same,TEAE headache,all patients (N = 109),33.9%
same,TEAE nausea,all patients (N = 109),41% and 41.3%
same,TEAE pyrexia,all patients (N = 109),36% and 35.8%
same,TEAEs related to subasumstat,all patients (N = 109),79.8%
same,CRS,"all patients (N = 109), 12 patients, all related to subasumstat",11%
same,Infusion-related reactions (IRR),"all patients (N = 109), seven patients",6.4% and 6%
same,Severity of IRR,all seven patients with IRR,grade 1 or 2
same,Dose from which CRS was observed,in vivo,≥ 60 mg
same,IRR deemed related to subasumstat,of seven patients with IRR,six
